Experimental data from article PMC12530851, “Design, synthesis, and apoptotic antiproliferative activity of novel dihydropyrimidine-5-carbonitrile/1,2,4-oxadiazole hybrids as dual EGFR/VEGFR-2 inhibitors endowed with antioxidant activity” (RSC Advances, 2025).
Values joined by “and” are separate entries in the source; they are usually repeats but may differ in a detail not shown here. Identical values can stand only once.

Key:
HT-29 (colon cancer) = assay: Antiproliferative assay, HT-29; type: cell-based; conditions: Homo sapiens; HT-29 colon cancer cells; read-out: Antiproliferative activity IC50 ± SEM, HT-29
Source text: The dose–response experiments established the IC50 values for the new compounds. The given findings were obtained from at least two distinct studies, each comprising three repeats per concentration. Appendix A (SI File) provides experimental details.[38,39]
The MTT assay[43] was utilized to assess the antiproliferative effects of compounds 10a–l on four human cancer cell lines: HT-29 (colon cancer), Panc-1 (pancreatic cancer), A-549 (lung cancer), and MCF-7 (breast cancer). […]
(§1) 4.2.2. Assay for antiproliferative effect
To explore the antiproliferative potential of compounds propidium iodide fluorescence assay was performed using different cell lines such as Panc-1 (pancreas cancer cell line), MCF-7 (breast cancer cell line), HT-29 (colon cancer cell line) and A-549 (epithelial cancer cell line), respectively. To calculate the total nuclear DNA, a fluorescent dye (propidium iodide, PI) is used which can attach to the DNA, thus offering a quick and precise technique. PI cannot pass through the cell membrane and its signal intensity can be considered as directly proportional to quantity of cellular DNA. Cells whose cell membranes are damaged or have changed permeability are counted as dead ones. The assay was performed by seeding the cells of different cell lines at a density of 3000-7500 cells/well (in 200μl medium) in culture plates followed by incubation for 24h at 37 °C in humidified 5%CO2/95% air atmospheric conditions. The medium was removed; the compounds were added to the plates at 10 μM concentrations (in 0.1% DMSO) in triplicates, followed by incubation for 48h. DMSO (0.1%) was used as control. After incubation, medium was removed followed by the addition of PI (25 μl, 50μg/mL in water/medium) to each well of the plates. At - 80 °C, the plates were allowed to freeze for 24 h, followed by thawing at 25 °C. A fluorometer (Polar-Star BMG Tech) was used to record the readings at excitation and emission wavelengths of 530 and 620 nm for each well. The percentage cytotoxicity of compounds was calculated using […]
Where ATC= Absorbance of treated cells and AC= Absorbance of control. Erlotinib was used as positive control in the assay. […]

EGFR = EGFR (Homo sapiens, UniProt P00533); assay: EGFR inhibitory assay (EGFR-TK test); conditions: for EGFR inhibitory potency relative to erlotinib: more potent than erlotinib
Chain of EGFR (P00533 669-1210): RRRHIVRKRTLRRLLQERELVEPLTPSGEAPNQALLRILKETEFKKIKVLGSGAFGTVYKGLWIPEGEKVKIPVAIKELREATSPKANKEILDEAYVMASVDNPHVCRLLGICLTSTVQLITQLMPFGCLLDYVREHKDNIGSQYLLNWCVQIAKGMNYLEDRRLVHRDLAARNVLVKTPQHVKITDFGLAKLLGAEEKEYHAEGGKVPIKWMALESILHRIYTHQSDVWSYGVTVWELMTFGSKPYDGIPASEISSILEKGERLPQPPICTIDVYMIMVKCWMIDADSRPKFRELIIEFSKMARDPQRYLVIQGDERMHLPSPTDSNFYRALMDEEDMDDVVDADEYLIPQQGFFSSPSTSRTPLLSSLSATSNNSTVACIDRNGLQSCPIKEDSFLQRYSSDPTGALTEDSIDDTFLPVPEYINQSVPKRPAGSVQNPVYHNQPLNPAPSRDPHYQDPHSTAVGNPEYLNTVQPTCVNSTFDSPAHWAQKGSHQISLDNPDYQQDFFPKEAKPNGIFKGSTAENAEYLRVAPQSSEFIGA
Method: Baculoviral expression vectors including pBlueBacHis2B and pFASTBacHTc were used
5ʹ upstream to the EGFR sequence comprised a sequence that encoded (His)6. Sf-9 cells were infected for 72h for protein expression. The pellets of Sf-9 cells were solubilized in a buffer containing sodium vanadate (100 μM), aprotinin (10 μg/mL), triton (1%), HEPES
buffer(50mM), ammonium molybdate (10 μM), benzamidine HCl (16 μg/mL), NaCl (10 mM),leupeptin (10 μg/mL) and pepstatin (10 μg/mL) at 0°C for 20 min at pH 7.4, followed by centrifugation for 20 min. To eliminate the nonspecifically bound material, a Ni-NTA super flow packed column was used to pass through and wash the crude extract supernatant first with 10mM and then with 100 mM imidazole. Histidine-linked proteins were first eluted with 250 and then with 500 mM imidazole subsequent to dialysis against NaCl (50 mM), HEPES (20 mM), glycerol (10%) and 1 μg/mL each of aprotinin, leupeptin and pepstatin for 120 min. The purification was performed either at 4 °C or on ice. To record autophosphorylation level, EGFR kinase assay was carried out on the basis of DELFIA/Time-Resolved Fluorometry. The compounds were first
dissolved in DMSO absolute, subsequent to dilution to appropriate concentration using HEPES
(25 mM) at pH 7.4. Each compound (10 μL) was incubated with recombinant enzyme (10 μL, 5
ng for EGFR, 1:80 dilution in 100 mM HEPES) for 10 min at 25 °C, subsequent to the addition of
5X buffer (10 μL, containing 2 mM MnCl2, 100 μM Na3VO4, 20 mM HEPES and 1 mM DTT)
and ATP-MgCl2 (20 μL, containing 0.1 mM ATP and 50 mM MgCl2) and incubation for 1h. The
negative and positive controls were included in each plate by the incubation of enzyme either with
or without ATP-MgCl2. The liquid was removed after incubation and the plates were washed
thrice using a wash buffer. The Europium-tagged antiphosphotyrosine antibody (75 μL, 400 ng)
was added to each well followed by incubation of 1h and then washing of the plates using buffer.
The enhancement solution was added to each well and the signal was recorded at excitation and
The autophosphorylation percentage inhibition by compounds was calculated using the following equation:
calculated. The majority of signals detected by antiphosphotyrosine antibody were from EGFR because the enzyme preparation contained low impurities.

caspase-8 = assay: Caspase-8 activation assay in MCF-7 cells; type: cell-based, human; conditions: for Caspase-8 Fold change: vs untreated control
Method: Compounds10k and 10l were tested as caspases-3, 8, 9, Bax and p53 activators and as down-regulators of the anti-apoptotic protein Bcl2 against the MCF-7 breast cancer cell line.[41] Appendix A gives more details.
To elucidate the apoptotic processes of compounds 10k and 10l, whether via the intrinsic or extrinsic pathway, their impacts on caspase-8 and caspase-9 were evaluated. […] This signifies the activation of both intrinsic and extrinsic pathways (Table 5).
4.2.6. Caspase-8/9 activation assay
Cells were obtained from American Type Culture Collection, cells were grown in RPMI 1640 containing 10% fetal bovine serum at 37°C, stimulated with the compounds to be tested for caspase 8/9, and lysed with Cell Extraction Buffer. This lysate was diluted in Standard Diluent Buffer over the range of the assay and measured for human active caspase-8/9 content. (Cells are Plated in a density of 1.2 – 1.8 × 10,000 cells/well in a volume of 100µl complete growth medium + 100 ul of the tested compound per well in a 96-well plate for 24 hours before the enzyme assay). The absorbance of each microwell was read on a spectro-photometer at 450 nm. […]

[1] = tested on: four human cancer cell lines (A-549, MCF-7, Panc-1, HT-29); assay: Antiproliferative assay, average over four cancer cell lines; type: cell-based; conditions: for GI50: Homo sapiens, average IC50 across A-549, MCF-7, Panc-1, HT-29
Method: The given findings were obtained from at least two distinct studies, each comprising three repeats per concentration. Appendix A (SI File) provides experimental details.[38,39] […]
as §1
To explore the antiproliferative potential of compounds propidium iodide fluorescence assay was performed using different cell lines such as Panc-1 (pancreas cancer cell line), MCF-7 (breast […]
respectively. To calculate the total nuclear DNA, a fluorescent dye (propidium iodide, PI) is used which can attach to the DNA, thus offering a quick and precise technique. PI cannot pass through the cell membrane and its signal intensity can be considered as directly proportional to quantity of cellular DNA. Cells whose cell membranes are damaged or have changed permeability are counted as dead ones. The assay was performed by seeding the cells of different cell lines at a density of 3000-7500 cells/well (in 200μl medium) in culture plates followed by incubation for 24h at 37 °C […]
The medium was removed; the compounds were added to the plates at 10 μM concentrations (in 0.1% DMSO) in triplicates, followed by incubation for 48h. DMSO (0.1%) was used as control. After incubation, medium was removed followed by the addition of PI (25 μl, 50μg/mL in water/medium) to each well of the plates. At - 80 °C, the plates were allowed to freeze for 24 h, followed by thawing at 25 °C. A fluorometer (Polar-Star BMG Tech) was used to record the readings at excitation and emission wavelengths of 530 and 620 nm for each well. The percentage cytotoxicity of compounds was calculated using […]
Where ATC= Absorbance of treated cells and AC= Absorbance of control. […]
positive control in the assay. […]

Compound | IC50 (HT-29 (colon cancer)) [nM] | IC50 (EGFR) [nM] | EGFR inhibitory potency relative to erlotinib (EGFR) [fold] | Caspase-8 Conc (caspase-8) [ng/mL] | Caspase-8 Fold change (caspase-8) | GI50 [1] [nM] | Potency relative to erlotinib, the other three cell lines ([1]; A-549, Panc-1, HT-29, greater potency than erlotinib) [fold]
COc1ccc(-c2noc(CSc3nc(-c4ccc(OC)cc4)c(C#N)c(=O)[nH]3)n2)cc1 [Compound 10l, 2-(((3-(4-Methoxyphenyl)-1,2,4-oxadiazol-5-yl)methyl)thio)-4-(4-methoxyphenyl)-6-oxo-1,6-dihydropyrimidine-5-carbonitrile] | 28 ± 1 | 61 ± 4 | 1.3 | 2.00 ± 0.10 | 20 fold and 20.00 fold | 26 | 
COc1ccc(-c2nc(SCc3nc(-c4ccc(Cl)cc4)no3)[nH]c(=O)c2C#N)cc1 [Compound 10k, 2-(((3-(4-Chlorophenyl)-1,2,4-oxadiazol-5-yl)methyl)thio)-4-(4-methoxyphenyl)-6-oxo-1,6-dihydropyrimidine-5-carbonitrile] | 23 ± 1 | 57 ± 3 | 1.4 | 2.50 ± 0.20 | 25 fold and 25.00 fold | 22 | 1.3
